Each compound was assayed on beta-TC6 cells (assay: Insulin HTRF assay (relative activity Ar) in beta-TC6 cells). Details: Mus musculus, Beta-TC6, 4 h, insulin HTRF, supernatant of beta-TC6 cells, incubation with test compound at 37°C for 2, 3, 4h; read-out: Ar (relative activity).
Type: cell-based, mouse
Outline: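 beta-TC6 cells (15k/well, seeded 24 or 48 h) washed, then exposed to compound in induction buffer (0.5% DMSO final) for 2, 3 or 4 h at 37°C.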

Compound	Emax [%]
Oc1cccc(Nc2nccc3[nH]c(-c4ccncc4)nc23)c1 [Compound 431, 3-[[2-(4-pyridyl)-1H-imidazo[4,5-c]pyridin-4-yl]amino]phenol]	50 to 100
COc1ccc(Nc2nccc3[nH]c(-c4ccncc4)nc23)cc1O [Compound 432, 2-methoxy-5-[[2-(4-pyridyl)-1H-imidazo[4,5-c]pyridin-4-yl]amino]phenol]	> 100
Clc1ccc(CNc2nccc3[nH]c(-c4ccncc4)nc23)cc1 [Compound 433, N-[(4-chlorophenyl)methyl]-2-(4-pyridyl)-1H-imidazo[4,5-c]pyridin-4-amine]	30 to 50
c1ccc(CCNc2nccc3[nH]c(-c4ccncc4)nc23)cc1 [Compound 434, N-phenethyl-2-(4-pyridyl)-1H-imidazo[4,5-c]pyridin-4-amine]	30 to 50
COc1cc(Nc2nccc3[nH]c(-c4cccc(C)c4)nc23)cc(OC)c1OC [Compound 435, 2-(m-tolyl)-N-(3,4,5-trimethoxyphenyl)-1H-imidazo[4,5-c]pyridin-4-amine]	50 to 100
COc1ccc(Nc2nccc3[nH]c(-c4cccc(C)c4)nc23)cc1OC [Compound 436, N-(3,4-dimethoxyphenyl)-2-(m-tolyl)-1H-imidazo[4,5-c]pyridin-4-amine]	50 to 100
Cc1cccc(-c2nc3c(NCCc4ccccn4)nccc3[nH]2)c1 [Compound 437, 2-(m-tolyl)-N-[2-(2-pyridyl)ethyl]-1H-imidazo[4,5-c]pyridin-4-amine]	30 to 50
Cc1cccc(-c2nc3c(Nc4cccc(O)c4)nccc3[nH]2)c1 [Compound 438, 3-[[2-(m-tolyl)-1H-imidazo[4,5-c]pyridin-4-yl]amino]phenol]	30 to 50
Cc1cccc(-c2nc3c(Nc4cccc(NS(C)(=O)=O)c4)nccc3[nH]2)c1 [Compound 439, N-[3-[[2-(m-tolyl)-1H-imidazo[4,5-c]pyridin-4-yl]amino]phenyl]methanesulfonamide]	30 to 50
COc1ccc(Nc2nccc3[nH]c(-c4ccc(F)c(F)c4)nc23)cc1OC [Compound 440, 2-(3,4-difluorophenyl)-N-(3,4-dimethoxyphenyl)-1H-imidazo[4,5-c]pyridin-4-amine]	30 to 50
Oc1cccc(Nc2nccc3[nH]c(-c4ccc(F)c(F)c4)nc23)c1 [Compound 441, 3-[[2-(3,4-difluorophenyl)-1H-imidazo[4,5-c]pyridin-4-yl]amino]phenol]	30 to 50
CN1CCN(c2nccc3[nH]c(-c4cccc(OC(F)(F)F)c4)nc23)CC1 [Compound 442, 4-(4-methylpiperazin-1-yl)-2-[3-(trifluoromethoxy)phenyl]-1H-imidazo[4,5-c]pyridine]	30 to 50
OC1CCC(Nc2nccc3[nH]c(-c4cccc(OC(F)(F)F)c4)nc23)CC1 (centres unmarked) [Compound 443, 4-[[2-[3-(trifluoromethoxy)phenyl]-1H-imidazo[4,5-c]pyridin-4-yl]amino]cyclohexanol]	30 to 50
COc1ccc(Nc2nccc3[nH]c(-c4cccc(OC(F)(F)F)c4)nc23)cc1O [Compound 444, 2-methoxy-5-[[2-[3-(trifluoromethoxy)phenyl]-1H-imidazo[4,5-c]pyridin-4-yl]amino]phenol]	30 to 50
FC(F)(F)Oc1cccc(-c2nc3c(NCc4ccccn4)nccc3[nH]2)c1 [Compound 445, N-(2-pyridylmethyl)-2-[3-(trifluoromethoxy)phenyl]-1H-imidazo[4,5-c]pyridin-4-amine]	30 to 50
FC(F)(F)Oc1cccc(-c2nc3c(N4CCOCC4)nccc3[nH]2)c1 [Compound 446, 4-[2-[3-(trifluoromethoxy)phenyl]-1H-imidazo[4,5-c]pyridin-4-yl]morpholine]	30 to 50
COc1ccc(Nc2nccc3c2ncn3C)cc1OC [Compound 447, N-(3,4-dimethoxyphenyl)-1-methyl-imidazo[4,5-c]pyridin-4-amine]	50 to 100
Cn1cnc2c(Nc3ccc4[nH]ccc4c3)nccc21 [Compound 448, N-(1H-indol-5-yl)-1-methyl-imidazo[4,5-c]pyridin-4-amine]	50 to 100
c1ccc(Cn2cnc3c(NC4CCCCC4)nccc32)cc1 [Compound 449, 1-benzyl-N-cyclohexyl-imidazo[4,5-c]pyridin-4-amine]	50 to 100
CN(C)c1cccc(Nc2nccc3c2ncn3C)c1 [Compound 450, N1,N1-dimethyl-N3-(1-methylimidazo[4,5-c]pyridin-4-yl)benzene-1,3-diamine]	30 to 50
c1ccc(Cn2cnc3c(NCc4ccco4)nccc32)cc1 [Compound 451, 1-benzyl-N-(2-furylmethyl)imidazo[4,5-c]pyridin-4-amine]	0 to 30
c1ccc(Cn2cnc3c(NCc4cccs4)nccc32)cc1 [Compound 452, 1-benzyl-N-(2-thienylmethyl)imidazo[4,5-c]pyridin-4-amine]	30 to 50

Compound	Emax [%]
c1ccc(Cn2cnc3c(NCc4ccc5c(c4)OCO5)nccc32)cc1 [Compound 454, N-(1,3-benzodioxol-5-ylmethyl)-1-benzyl-imidazo[4,5-c]pyridin-4-amine]	50 to 100
COc1ccc(CNc2nccc3c2ncn3Cc2ccccc2)cc1 [Compound 455, 1-benzyl-N-[(4-methoxyphenyl)methyl]imidazo[4,5-c]pyridin-4-amine]	0 to 30
CC(C)c1ccc(Nc2nccc3c2ncn3Cc2ccccc2)cc1 [Compound 457, 1-benzyl-N-(4-isopropylphenyl)imidazo[4,5-c]pyridin-4-amine]	30 to 50
COc1ccc(Nc2nccc3[nH]c(-c4ccccc4Cl)nc23)cc1OC [Compound 458, 2-(2-chlorophenyl)-N-(3,4-dimethoxyphenyl)-1H-imidazo[4,5-c]pyridin-4-amine]	50 to 100
Clc1ccccc1-c1nc2c(NCCc3ccncc3)nccc2[nH]1 [Compound 459, 2-(2-chlorophenyl)-N-[2-(4-pyridyl)ethyl]-1H-imidazo[4,5-c]pyridin-4-amine]	0 to 30
COc1cc(CNc2nccc3[nH]c(-c4ccccc4Cl)nc23)cc(OC)c1OC [Compound 460, 2-(2-chlorophenyl)-N-[(3,4,5-trimethoxyphenyl)methyl]-1H-imidazo[4,5-c]pyridin-4-amine]	0 to 30
Fc1ccc(Nc2nccc3[nH]c(-c4ccccc4Cl)nc23)cc1Cl [Compound 461, N-(3-chloro-4-fluoro-phenyl)-2-(2-chlorophenyl)-1H-imidazo[4,5-c]pyridin-4-amine]	0 to 30
FC(F)(F)c1cccc(Nc2nccc3[nH]c(-c4ccccc4Cl)nc23)c1 [Compound 462, 2-(2-chlorophenyl)-N-[3-(trifluoromethyl)phenyl]-1H-imidazo[4,5-c]pyridin-4-amine]	0 to 30
CS(=O)(=O)Nc1cccc(Nc2nccc3[nH]c(-c4ccccc4Cl)nc23)c1 [Compound 463, N-[3-[[2-(2-chlorophenyl)-1H-imidazo[4,5-c]pyridin-4-yl]amino]phenyl]methanesulfonamide]	30 to 50
COc1cccc(Nc2nccc3[nH]c(-c4ccco4)nc23)c1 [Compound 464, 2-(2-furyl)-N-(3-methoxyphenyl)-1H-imidazo[4,5-c]pyridin-4-amine]	30 to 50
c1cncc(Nc2nccc3[nH]c(-c4ccco4)nc23)c1 [Compound 465, 2-(2-furyl)-N-(3-pyridyl)-1H-imidazo[4,5-c]pyridin-4-amine]	0 to 30
COc1ccc(Nc2nccc3[nH]c(-c4ccco4)nc23)cc1 [Compound 466, 2-(2-furyl)-N-(4-methoxyphenyl)-1H-imidazo[4,5-c]pyridin-4-amine]	50 to 100
COc1cccc(-c2nc3c(Nc4cc(OC)c(OC)c(OC)c4)nccc3[nH]2)c1F [Compound 467, 2-(2-fluoro-3-methoxy-phenyl)-N-(3,4,5-trimethoxyphenyl)-1H-imidazo[4,5-c]pyridin-4-amine]	> 100
COc1cccc(Nc2nccc3[nH]c(-c4cccc(OC)c4F)nc23)c1 [Compound 468, 2-(2-fluoro-3-methoxy-phenyl)-N-(3-methoxyphenyl)-1H-imidazo[4,5-c]pyridin-4-amine]	30 to 50
COc1ccc(Nc2nccc3[nH]c(-c4cccc(OC)c4F)nc23)cc1OC [Compound 469, N-(3,4-dimethoxyphenyl)-2-(2-fluoro-3-methoxy-phenyl)-1H-imidazo[4,5-c]pyridin-4-amine]	> 100
COc1ccc(Nc2nccc3[nH]c(-c4cccc(OC)c4F)nc23)cn1 [Compound 470, 2-(2-fluoro-3-methoxy-phenyl)-N-(6-methoxy-3-pyridyl)-1H-imidazo[4,5-c]pyridin-4-amine]	30 to 50
COc1cccc(-c2nc3c(Nc4ccc(Cl)cc4)nccc3[nH]2)c1F [Compound 471, N-(4-chlorophenyl)-2-(2-fluoro-3-methoxy-phenyl)-1H-imidazo[4,5-c]pyridin-4-amine]	0 to 30
COc1cccc(-c2nc3c(Nc4ccccc4)nccc3[nH]2)c1F [Compound 472, 2-(2-fluoro-3-methoxy-phenyl)-N-phenyl-1H-imidazo[4,5-c]pyridin-4-amine]	50 to 100
COc1cccc(-c2nc3c(Nc4ccc(F)c(Cl)c4)nccc3[nH]2)c1F [Compound 474, N-(3-chloro-4-fluoro-phenyl)-2-(2-fluoro-3-methoxy-phenyl)-1H-imidazo[4,5-c]pyridin-4-amine]	30 to 50
COc1cccc(-c2nc3c(NC4CCC(N)CC4)nccc3[nH]2)c1F (centres unmarked) [Compound 476, N4-[2-(2-fluoro-3-methoxy-phenyl)-1H-imidazo[4,5-c]pyridin-4-yl]cyclohexane-1,4-diamine]	0 to 30
COc1cccc(-c2nc3c(Nc4cccc(S(C)(=O)=O)c4)nccc3[nH]2)c1F [Compound 477, 2-(2-fluoro-3-methoxy-phenyl)-N-(3-methylsulfonylphenyl)-1H-imidazo[4,5-c]pyridin-4-amine]	30 to 50

Same assay, conditions: Mus musculus, Beta-TC6, 4 h, read-out: Ar (relative activity)

Compound	Emax [%]
CCN(CC)CCNC(=O)c1ccc(Nc2nccc3[nH]c(-c4cccc(OC)c4F)nc23)cc1 [Compound 473, N-(2-diethylaminoethyl)-4-[[2-(2-fluoro-3-methoxy-phenyl)-1H-imidazo[4,5-c]pyridin-4-yl]amino]benzamide]	> 100

— EP2818472A1, “Imidazo[4,5-c]pyridine and pyrrolo[3,2-c]pyridine compounds as G-protein-coupled receptor kinase 5 (GRK5) modulators” (Max-Planck-Gesellschaft zur Förderung der Wissenschaften …, priority 2013, dated 2014)
